According to ChEMBL document CHEMBL1201862, “PubChem BioAssay data set” (2004):
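Following 48 hours of exposure in 96-well plates, responses at five concentrations were used to interpolate endpoints linearly. At the GI50, growth is halved.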 Active and inactive are the calls of the source. Rule as the data show it: active = GI50 up to about 1.1 µM and inactive = higher.

What was measured:
Test in all cases: NCI-60 cell line screen, 48 h
MDA-MB-231 = system: MDA-MB-231
NCI-H226 = system: NCI-H226
HCT-116 = system: HCT-116
SK-MEL-28 = system: SK-MEL-28
Malme-3M = system: Malme-3M
MDA-MB-435 = system: MDA-MB-435
HCT-15 = system: HCT-15
CAKI-1 = system: CAKI-1
786-0 = system: 786-0
NCI-H522 = system: NCI-H522
COLO 205 = system: COLO 205
SK-MEL-2 = system: SK-MEL-2
UACC-257 = system: UACC-257
A498 = system: A498
NCI/ADR-RES = system: NCI/ADR-RES
DU-145 = system: DU-145
SF-295 = system: SF-295
SF-539 = system: SF-539
SK-OV-3 = system: SK-OV-3
NCI-H460 = system: NCI-H460
M14 = system: M14
EKVX = system: EKVX
HCC 2998 = system: HCC 2998
HOP-62 = system: HOP-62
SNB-19 = system: SNB-19
BT-549 = system: BT-549
UACC-62 = system: UACC-62
SW-620 = system: SW-620
Hs-578T = system: Hs-578T
HT-29 = system: HT-29
SK-MEL-5 = system: SK-MEL-5
SN12C = system: SN12C
MDA-N = system: MDA-N
SF-268 = system: SF-268
OVCAR-3 = system: OVCAR-3
OVCAR-4 = system: OVCAR-4
HOP-92 = system: HOP-92
OVCAR-5 = system: OVCAR-5
T47D = system: T47D
RPMI-8226 = system: RPMI-8226
SR = system: SR
OVCAR-8 = system: OVCAR-8
NCI-H23 = system: NCI-H23
ACHN = system: ACHN
LOX IMVI = system: LOX IMVI
RXF 393 = system: RXF 393
K562 = system: K562
TK-10 = system: TK-10
KM12 = system: KM12
UO-31 = system: UO-31
U-251 = system: U-251
A549 = system: A549
MOLT-4 = system: MOLT-4
SNB-75 = system: SNB-75
HL-60 = system: HL-60
MCF7 = system: MCF7
PC-3 = system: PC-3
CCRF-CEM = system: CCRF-CEM
IGROV-1 = system: IGROV-1

CCN(CC)C(=S)SS(=O)(=O)c1ccc(F)cc1
GI50 (MDA-MB-231): 32.4 µM (inactive) | GI50 (NCI-H226): > 100 µM (inactive) | GI50 (HCT-116): 25.3 µM (inactive) | GI50 (SK-MEL-28): 14 µM (inactive) | GI50 (Malme-3M): 19.9 µM (inactive) | GI50 (MDA-MB-435): 38.9 µM (inactive) | GI50 (HCT-15): 66.7 µM | GI50 (CAKI-1): 41 µM (inactive) | GI50 (786-0): 73.3 µM (inactive) | GI50 (NCI-H522): 0.0552 µM (active) | GI50 (COLO 205): > 100 µM (inactive) | GI50 (SK-MEL-2): 56.4 µM (inactive) | GI50 (UACC-257): 28.4 µM (inactive) | GI50 (A498): > 100 µM (inactive) | GI50 (NCI/ADR-RES): 50.7 µM (inactive) | GI50 (DU-145): 37.9 µM (inactive) | GI50 (SF-295): 75.3 µM (inactive) | GI50 (SF-539): 23 µM (inactive) | GI50 (SK-OV-3): > 100 µM (inactive) | GI50 (NCI-H460): 42.9 µM (inactive) | GI50 (M14): 29.1 µM (inactive) | GI50 (EKVX): > 100 µM (inactive) | GI50 (HCC 2998): > 100 µM (inactive) | GI50 (HOP-62): 40.6 µM (inactive) | GI50 (SNB-19): > 100 µM (inactive) | GI50 (BT-549): 46.1 µM (inactive) | GI50 (UACC-62): 19.9 µM (inactive) | GI50 (SW-620): 17.9 µM (inactive) | GI50 (Hs-578T): 63 µM (inactive) | GI50 (HT-29): 22 µM (inactive) | GI50 (SK-MEL-5): 7.41 µM (inactive) | GI50 (SN12C): 34.5 µM (inactive) | GI50 (MDA-N): 63.2 µM (inactive) | GI50 (SF-268): > 100 µM (inactive) | GI50 (OVCAR-3): > 100 µM (inactive) | GI50 (OVCAR-4): > 100 µM (inactive) | GI50 (HOP-92): 31.2 µM (inactive) | GI50 (OVCAR-5): > 100 µM (inactive) | GI50 (T47D): 85.1 µM (inactive) | GI50 (RPMI-8226): 17.7 µM (inactive) | GI50 (SR): 0.348 µM (active) | GI50 (OVCAR-8): 32.1 µM (inactive) | GI50 (NCI-H23): 76.4 µM (inactive) | GI50 (ACHN): 43.1 µM (inactive) | GI50 (LOX IMVI): 19.6 µM (inactive) | GI50 (RXF 393): 18.8 µM (inactive) | GI50 (K562): 23.2 µM (inactive) | GI50 (TK-10): > 100 µM (inactive) | GI50 (KM12): 17.8 µM (inactive) | GI50 (UO-31): 27.7 µM (inactive) | GI50 (U-251): 18.8 µM (inactive)

CCOC(=O)c1c(NC(=O)c2ccccc2)sc2c1CCC2
GI50 (MDA-MB-231): > 100 µM (inactive) | GI50 (NCI-H226): > 100 µM (inactive) | GI50 (HCT-116): > 100 µM (inactive) | GI50 (HCT-15): > 100 µM | GI50 (CAKI-1): > 100 µM (inactive) | GI50 (A549): > 100 µM (inactive) | GI50 (786-0): > 100 µM (inactive) | GI50 (COLO 205): > 100 µM (inactive) | GI50 (SK-MEL-2): > 100 µM (inactive) | GI50 (UACC-257): > 100 µM (inactive) | GI50 (A498): > 100 µM (inactive) | GI50 (NCI/ADR-RES): > 100 µM (inactive) | GI50 (DU-145): > 100 µM (inactive) | GI50 (MOLT-4): > 100 µM (inactive) | GI50 (SF-295): > 100 µM (inactive) | GI50 (SF-539): > 100 µM (inactive) | GI50 (NCI-H460): > 100 µM (inactive) | GI50 (SNB-75): > 100 µM (inactive) | GI50 (M14): > 100 µM (inactive) | GI50 (EKVX): > 100 µM (inactive) | GI50 (HOP-62): > 100 µM (inactive) | GI50 (SNB-19): > 100 µM (inactive) | GI50 (BT-549): > 100 µM (inactive) | GI50 (HL-60): > 100 µM (inactive) | GI50 (MCF7): > 100 µM (inactive) | GI50 (UACC-62): > 100 µM (inactive) | GI50 (PC-3): > 100 µM (inactive) | GI50 (CCRF-CEM): > 100 µM (inactive) | GI50 (Hs-578T): > 100 µM (inactive) | GI50 (HT-29): > 100 µM (inactive) | GI50 (SK-MEL-5): > 100 µM (inactive) | GI50 (SN12C): > 100 µM (inactive) | GI50 (MDA-N): > 100 µM (inactive) | GI50 (SF-268): > 100 µM (inactive) | GI50 (OVCAR-3): > 100 µM (inactive) | GI50 (OVCAR-5): > 100 µM (inactive) | GI50 (T47D): > 100 µM (inactive) | GI50 (RPMI-8226): > 100 µM (inactive) | GI50 (SR): > 100 µM (inactive) | GI50 (OVCAR-8): > 100 µM (inactive) | GI50 (NCI-H23): > 100 µM (inactive) | GI50 (ACHN): > 100 µM (inactive) | GI50 (RXF 393): > 100 µM (inactive) | GI50 (IGROV-1): > 100 µM (inactive) | GI50 (K562): > 100 µM (inactive) | GI50 (TK-10): > 100 µM (inactive) | GI50 (KM12): > 100 µM (inactive) | GI50 (UO-31): > 100 µM (inactive)

Cc1c2c(c(C)c3c[n+](C)ccc13)Oc1ccccc1O2
GI50 (MDA-MB-231): 24.6 µM (inactive) | GI50 (NCI-H226): 5.66 µM (inactive) | GI50 (HCT-116): 22.8 µM (inactive) | GI50 (SK-MEL-28): 13.7 µM (inactive) | GI50 (Malme-3M): 2.56 µM (inactive) | GI50 (MDA-MB-435): 15.1 µM (inactive) | GI50 (HCT-15): > 62.2 µM | GI50 (CAKI-1): > 67.5 µM (inactive) | GI50 (A549): 1.84 µM (inactive) | GI50 (786-0): 6.62 µM (inactive) | GI50 (NCI-H522): 4.42 µM (inactive) | GI50 (COLO 205): 6.34 µM (inactive) | GI50 (SK-MEL-2): 12.2 µM (inactive) | GI50 (UACC-257): 6.87 µM (inactive) | GI50 (A498): 28.6 µM (inactive) | GI50 (NCI/ADR-RES): > 100 µM (inactive) | GI50 (DU-145): 22.9 µM (inactive) | GI50 (MOLT-4): 3.02 µM (inactive) | GI50 (SF-295): 5.69 µM (inactive) | GI50 (SF-539): 3.78 µM (inactive) | GI50 (SK-OV-3): 23.5 µM (inactive) | GI50 (NCI-H460): 3.4 µM (inactive) | GI50 (SNB-75): 5.28 µM (inactive) | GI50 (M14): 18.2 µM (inactive) | GI50 (EKVX): 9.44 µM (inactive) | GI50 (HCC 2998): 6.56 µM (inactive) | GI50 (HOP-62): 8.89 µM (inactive) | GI50 (SNB-19): 1.74 µM (inactive) | GI50 (BT-549): 2.67 µM (inactive) | GI50 (HL-60): 13.3 µM (inactive) | GI50 (MCF7): 9.12 µM (inactive) | GI50 (UACC-62): 12.7 µM (inactive) | GI50 (PC-3): 16.3 µM (inactive) | GI50 (CCRF-CEM): 3.87 µM (inactive) | GI50 (SW-620): 16.9 µM (inactive) | GI50 (Hs-578T): 3.13 µM (inactive) | GI50 (HT-29): 20 µM (inactive) | GI50 (SK-MEL-5): 4.32 µM (inactive) | GI50 (SN12C): 1.77 µM (inactive) | GI50 (MDA-N): 18.6 µM (inactive) | GI50 (SF-268): 1.64 µM (inactive) | GI50 (OVCAR-3): 3.17 µM (inactive) | GI50 (OVCAR-4): 9.42 µM (inactive) | GI50 (HOP-92): 34.8 µM (inactive) | GI50 (OVCAR-5): 18.2 µM (inactive) | GI50 (T47D): 2.57 µM (inactive) | GI50 (RPMI-8226): 1.88 µM (inactive) | GI50 (OVCAR-8): 6.05 µM (inactive) | GI50 (NCI-H23): 6.9 µM (inactive) | GI50 (ACHN): 34.9 µM (inactive) | GI50 (LOX IMVI): 22.3 µM (inactive) | GI50 (RXF 393): 34.7 µM (inactive) | GI50 (IGROV-1): 13.9 µM (inactive) | GI50 (K562): 3.59 µM (inactive) | GI50 (TK-10): 50.9 µM (inactive) | GI50 (KM12): 0.82 µM (active) | GI50 (UO-31): 94.4 µM (inactive) | GI50 (U-251): 1.21 µM (inactive)
